The text below walks through data of patent US20260285897A1, “Neurosteroids and Prodrugs Thereof” (Emory University, priority 2023, published 2026).

Where only a bound is given, the exact number is not on record here.

One data set in a line: Plasma stability assay. Type of data set: in vitro ADME. The following applies: human plasma, 37° C., read-out: Human plasma t1/2. As for the experimental part:
(§1) 3 μM test compound was incubated in Human or Mouse plasma (BioIVT) at 37° C. with aliquots (100 μL) removed at 0, 15, 30, 60, 120, and 240 minutes. Enzymatic activity was quenched at each time point with the addition of 200 μL of acetonitrile containing 2 μM internal standard (d5-7-ethoxy coumarin), immediately vortexed and centrifuged at 15,000 rpm for 25 min at 4° C. Supernatants were transferred to autosampler vials for LC-MS/MS analysis. LC-MS/MS analysis was performed using Agilent Infinity II 1260 HPLC coupled to a G6460C QQQ MS. Half-lives were determined by plotting ln of % test compound remaining versus time and performing linear regression to determine the slope. Slope=−k and t½=0.693/k for first order kinetics.

Data set [1] is described as follows: Aqueous stability assay in PBS (DPBS), HPLC. Type of data set: physicochemical. The following applies: 1 mg/mL, room temperature, parent remaining at 2 hr, read-out: PBS (% REM at 2 hr). As for the experimental part: Aqueous stability experiments were performed on an Agilent 1100 HPLC equipped with an Agilent 1200 autosampler. HPLC grade solvents were exclusively used during analysis, with acetonitrile being purchased from Sigma Aldrich, and water and formic acid provided by Fisher Scientific. Sample solutions were prepared in 2.0 mL large opening RAM™ vials from Chemglass using DPBS as the aqueous medium.
Tested compounds were dissolved in DPBS at a standard concentration of 1 mg/mL. All mixtures were then sonicated for 5 min or stirred until complete dissolution was achieved. Any precipitate observed in sample solutions was filtered with a PTFE syringe filter prior to analysis. Immediately after sample preparation, injection by the HPLC autosampler was performed, which was recorded as the initial time point (t=0 min). Samples were then kept in the autosampler at room temperature and injected at designated intervals without additional filtration or sample modification. Next, the area of the parent peak in each chromatogram was determined by automated integration in the Agilent ChemStation software. Pseudo first-order half-lives were then ascertained by calculating the percent of the parent compound remaining after each time point, Plots of time (x-axis) vs. the natural logarithm of percent parent remaining (y-axis) were subsequently constructed to determine the slope. Finally, the aqueous stability was evaluated using the following equation: […]
The HPLC conditions were as follows: injection volume, 1 μL; column temperature: 40° C.; detector: 254 nm; stationary phase: Zorbax Eclipse XDB-C18 (4.6×150 mm, 5 μm); flow rate: 1 mL/min; mobile phase: 80-95% acetonitrile in H2O (0.1% formic acid).

In the next data set the target is GABAA α4β3δ (Homo sapiens, UniProt P28472+P48169). The data set can be described thus: GABAA electrophysiology, PAM mode, SyncroPatch automated patch clamp. Type of data set: cell-based. The following applies: for selectivity for GABAA receptor containing the delta (δ) subunit compared to a GABAA receptor without it: α4β3δ vs α1β2γ2, in words; for Emax: read-out: GABAA α4β3δ Maximum Potentiation. As for the experimental part:
(§2) The SyncroPatch assay is performed at room temperature. A fast application protocol is used, in which the ligand is rapidly applied and then removed from the cell. To test for PAM mode, the agonist (GABA EC20) is applied three times as a control and to show reproducibility, followed by a minimum 2-minute pre-incubation of client compound and then re-application of agonist (GABA EC20) in the presence of client compound. Finally, a saturating concentration of agonist is applied. A steady-state voltage pulse at −80 mV is applied throughout the assay. Compounds are prepared as 10 mM DMSO stocks.
(§3) Automated patch clamp-recordings are performed using the SyncroPatch 384i. The voltage protocol generation and data collection are performed with Patch Controller 384 V2.2.1 and Data Controller V2.3.0. The PAM activity is calculated using the following equation, [(Icomp/Ireference)−1], where Icomp is the current amplitude in the presence of the compound and Ireference is the current amplitude in the presence of GABA alone. This builds an activation concentration-response curve (CRC), where <0.2 represents no PAM activity and >0.2 represents PAM activity. If a “bell-shape curve” is observed at the higher concentrations, showing a reduction in activity in comparison to previous concentrations, then to allow for a more accurate curve fit, these concentrations are removed from the graphs where necessary and noted in the results table.
(Patch clamp records ionic current or voltage across a cell membrane.)

Another data set concerns the target GABAA α1β2γ2 (Homo sapiens, UniProt P14867+P47870). Described as above. Type of data set: cell-based. The following applies: for Emax: read-out: GABAA α1β2γ2 Maximum Potentiation. As for the experimental part: as §2, §3
A further data set is described as follows: Aqueous solubility. The following applies: water.
Data set [2] in a line: Microsomal stability assay. Type of data set: in vitro ADME. The note with it: Human Liver Microsomes, 37° C., unit in cell hr (head: min), read-out: HLM t1/2. As for the experimental part: as §1, with “Liver Microsomes (Xenotech)” for “or Mouse plasma (BioIVT)”, “[…])” for “μL)”, “0, 5, 10,” for “0,”, “15,” for “15, 30, 60, 120,”, “30” for “240”

GABAA α4β3δ, sequence (P48169 36-554): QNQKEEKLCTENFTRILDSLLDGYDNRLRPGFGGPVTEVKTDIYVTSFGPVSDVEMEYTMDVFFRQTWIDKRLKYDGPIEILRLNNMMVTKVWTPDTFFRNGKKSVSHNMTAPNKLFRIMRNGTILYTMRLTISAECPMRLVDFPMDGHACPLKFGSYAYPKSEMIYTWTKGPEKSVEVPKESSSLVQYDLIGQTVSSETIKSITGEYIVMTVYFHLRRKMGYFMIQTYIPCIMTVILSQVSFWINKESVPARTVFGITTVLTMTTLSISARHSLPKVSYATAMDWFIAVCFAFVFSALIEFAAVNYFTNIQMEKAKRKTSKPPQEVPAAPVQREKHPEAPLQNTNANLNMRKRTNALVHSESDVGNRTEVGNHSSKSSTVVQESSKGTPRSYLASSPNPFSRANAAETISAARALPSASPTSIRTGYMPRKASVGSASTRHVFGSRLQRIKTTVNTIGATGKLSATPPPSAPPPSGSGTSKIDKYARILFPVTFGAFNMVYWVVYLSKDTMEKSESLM
GABAA α4β3δ, sequence (P28472 26-473): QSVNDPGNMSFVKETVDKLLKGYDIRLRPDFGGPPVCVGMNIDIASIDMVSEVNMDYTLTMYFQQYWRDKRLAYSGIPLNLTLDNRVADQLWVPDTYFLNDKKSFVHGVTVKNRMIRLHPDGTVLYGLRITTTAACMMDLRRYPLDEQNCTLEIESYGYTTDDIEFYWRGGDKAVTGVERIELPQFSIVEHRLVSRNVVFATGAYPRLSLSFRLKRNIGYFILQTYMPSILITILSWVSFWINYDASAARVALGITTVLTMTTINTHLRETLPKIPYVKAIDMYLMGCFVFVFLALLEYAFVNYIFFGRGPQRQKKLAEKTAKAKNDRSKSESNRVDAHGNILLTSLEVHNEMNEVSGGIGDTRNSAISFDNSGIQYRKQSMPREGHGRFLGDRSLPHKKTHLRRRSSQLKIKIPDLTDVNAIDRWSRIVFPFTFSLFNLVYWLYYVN
GABAA α4β3δ, sequence (O14764 17-452 partner limits assumed): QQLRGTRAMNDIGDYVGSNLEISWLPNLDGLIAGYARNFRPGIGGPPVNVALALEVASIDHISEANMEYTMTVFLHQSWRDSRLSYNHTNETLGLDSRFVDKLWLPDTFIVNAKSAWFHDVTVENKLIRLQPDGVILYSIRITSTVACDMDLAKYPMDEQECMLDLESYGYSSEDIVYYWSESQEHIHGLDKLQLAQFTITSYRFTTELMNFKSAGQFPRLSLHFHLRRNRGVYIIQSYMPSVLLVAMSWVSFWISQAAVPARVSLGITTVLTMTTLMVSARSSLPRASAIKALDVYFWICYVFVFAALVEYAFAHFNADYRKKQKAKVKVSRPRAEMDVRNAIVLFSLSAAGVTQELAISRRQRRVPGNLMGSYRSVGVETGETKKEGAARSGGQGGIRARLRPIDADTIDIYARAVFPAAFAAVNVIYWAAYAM
GABAA α1β2γ2, sequence (P14867 28-456): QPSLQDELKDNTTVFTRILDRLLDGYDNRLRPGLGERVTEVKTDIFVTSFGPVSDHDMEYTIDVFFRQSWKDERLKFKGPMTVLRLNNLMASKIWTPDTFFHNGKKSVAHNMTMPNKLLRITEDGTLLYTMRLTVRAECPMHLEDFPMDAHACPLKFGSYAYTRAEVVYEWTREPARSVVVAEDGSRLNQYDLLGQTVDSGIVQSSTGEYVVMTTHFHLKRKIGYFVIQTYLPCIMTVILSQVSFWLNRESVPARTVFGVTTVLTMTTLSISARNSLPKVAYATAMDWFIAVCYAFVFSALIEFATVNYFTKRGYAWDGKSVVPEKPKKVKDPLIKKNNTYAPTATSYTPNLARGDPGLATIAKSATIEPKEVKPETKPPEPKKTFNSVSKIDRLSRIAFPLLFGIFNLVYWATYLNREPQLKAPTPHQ
GABAA α1β2γ2, sequence (P47870 25-512 limits assumed): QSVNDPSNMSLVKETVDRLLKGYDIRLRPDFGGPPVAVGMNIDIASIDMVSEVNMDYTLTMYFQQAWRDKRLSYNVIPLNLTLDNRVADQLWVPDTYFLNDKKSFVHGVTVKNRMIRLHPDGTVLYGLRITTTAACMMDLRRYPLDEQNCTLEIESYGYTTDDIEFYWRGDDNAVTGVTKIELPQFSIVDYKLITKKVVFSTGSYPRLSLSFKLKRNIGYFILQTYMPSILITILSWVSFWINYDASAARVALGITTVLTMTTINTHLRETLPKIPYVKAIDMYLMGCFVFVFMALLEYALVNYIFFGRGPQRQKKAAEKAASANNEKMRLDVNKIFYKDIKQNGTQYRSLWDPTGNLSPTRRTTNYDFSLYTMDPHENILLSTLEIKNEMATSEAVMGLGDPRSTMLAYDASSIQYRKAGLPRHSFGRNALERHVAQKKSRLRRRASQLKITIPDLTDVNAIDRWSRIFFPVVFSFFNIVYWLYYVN
GABAA α1β2γ2, sequence (P18507 40-475 partner): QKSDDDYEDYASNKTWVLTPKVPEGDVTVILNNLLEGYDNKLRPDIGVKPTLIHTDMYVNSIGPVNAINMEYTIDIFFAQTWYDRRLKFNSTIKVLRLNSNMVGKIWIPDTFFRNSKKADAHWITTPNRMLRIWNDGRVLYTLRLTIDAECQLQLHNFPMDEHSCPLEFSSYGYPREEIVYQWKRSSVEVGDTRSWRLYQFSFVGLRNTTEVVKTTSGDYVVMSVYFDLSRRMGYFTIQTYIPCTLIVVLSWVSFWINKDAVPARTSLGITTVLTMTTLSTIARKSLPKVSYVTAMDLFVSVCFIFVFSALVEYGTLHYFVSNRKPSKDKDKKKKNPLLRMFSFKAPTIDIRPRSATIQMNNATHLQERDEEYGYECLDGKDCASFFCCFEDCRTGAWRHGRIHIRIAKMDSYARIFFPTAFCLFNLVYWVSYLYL

On to `C/C(=N\O)[C@@]1(F)CC[C@H]2[C@@H]3CC[C@H]4C[C@](C)(O)CC[C@]4(C)[C@H]3CC[C@@]21C` [GP-GAN- 006 (15), (E)-1-((3R,8R,9S,10S,13S,14S,17R)-17-fluoro-3-hydroxy-3,10,13-trimethylhexadecahydro-1H-cyclopenta[a]phenanthren-17-yl)ethan-1-one oxime], for which the half-life at 3 µM in “Plasma stability assay” amounted to 3 min. In data set [1], the remaining at 2 h amounted to 61%.
Consider `CC(=O)[C@H]1CC[C@H]2[C@@H]3CC[C@H]4C[C@](C)(O)CC[C@]4(C)[C@H]3CC[C@]12C` [Ganaxalone, Ganaxolone, reference compound], for which the concentration giving a half-maximal response (EC50) came to 879 nM on GABAA α4β3δ and 540 nM at GABAA α1β2γ2.
For `C/C(=N\O)[C@H]1CC[C@H]2[C@@H]3CCC4C[C@](C)(O)CC[C@]4(C)[C@H]3CC[C@]12C` (stereo partly drawn) [compound 10], the “selectivity for GABAA receptor containing the delta (δ) subunit compared to a GABAA receptor without it” value at GABAA α4β3δ is “selectively potentiate”.
Regarding `CNCCN(C(=O)O/N=C(\C)[C@H]1CC[C@H]2[C@@H]3CCC4C[C@](C)(O)CC[C@]4(C)[C@H]3CC[C@]12C)C(C)C.Cl` (stereo partly drawn) [GP-GAN- 004 (20d), (E)-1-((3R,8R,9S,10S,13S,14S,17S)-3-hydroxy-3,10,13-trimethylhexadecahydro-1H-cyclopenta[a]phenanthren-17-yl)ethan-1-one O-(isopropyl(2-(methylamino)ethyl)carbamoyl) oxime hydrochloride], the half-life at 3 µM in “Plasma stability assay” is 28 min. For the same compound, the remaining at 2 h in data set [1] worked out at 52%. Further, the solubility in the data set “Aqueous solubility” was greater than 750 µM.
With `CNCCN(C)C(=O)O/N=C(\C)[C@H]1CC[C@H]2[C@@H]3CCC4C[C@](C)(O)CC[C@]4(C)[C@H]3CC[C@]12C.Cl` (stereo partly drawn) [GP-GAN- 002 (20a), (E)-1-((3R,8R,9S,10S,13S,14S,17S)-3-hydroxy-3,10,13-trimethylhexadecahydro-1H-cyclopenta[a]phenanthren-17-yl)ethan-1-one O-(methyl(2-(methylamino)ethyl)carbamoyl) oxime hydrochloride], the half-life at 3 µM in the data set “Plasma stability assay” turned out to be 55 min. Besides, the remaining at 2 h in data set [1] was found to be 66%. In the data set “Aqueous solubility”, this compound had a solubility greater than 750 µM.
Turning to `CNCCN(C(=O)O/N=C(\C)[C@H]1CC[C@H]2[C@@H]3CCC4C[C@](C)(O)CC[C@]4(C)[C@H]3CC[C@]12C)C1CCC1.Cl` (stereo partly drawn) [GP-GAN- 005 (20c), (E)-1-((3R,8R,9S,10S,13S,14S,17S)-3-hydroxy-3,10,13-trimethylhexadecahydro-1H-cyclopenta[a]phenanthren-17-yl)ethan-1-one O-(cyclobutyl(2-(methylamino)ethyl)carbamoyl) oxime hydrochloride], in “Plasma stability assay”, the half-life at 3 µM is 39 min. Further, the remaining at 2 h in data set [1] stood at 43%. In the data set “Aqueous solubility”, this compound displayed a solubility greater than 750 µM.
As for `C/C(=N\OC(=O)N(C)C[C@@H]1CCCN1)[C@H]1CC[C@H]2[C@@H]3CCC4C[C@](C)(O)CC[C@]4(C)[C@H]3CC[C@]12C.Cl` (stereo partly drawn) [GP-GAN- 003 (20b), (E)-1-((3R,8R,9S,10S,13S,14S,17S)-3-hydroxy-3,10,13-trimethylhexadecahydro-1H-cyclopenta[a]phenanthren-17-yl)ethan-1-one O-(methyl(((S)-pyrrolidin-2-yl)methyl)carbamoyl) oxime hydrochloride], the half-life at 3 µM in the data set “Plasma stability assay” was found to be 6 min. Further, the remaining at 2 h in data set [1] came to 10%. This compound also returned a solubility in “Aqueous solubility” greater than 750 µM.
`C/C(=N\O)[C@H]1CC[C@H]2[C@@H]3CC[C@@H]4C[C@](C)(O)CC[C@@H]4[C@H]3CC[C@]12C` [LEH- NEURO- 007 (30), (E)-1-((3R,5R,8R,9R,10S,13S,14S,17S)-3-hydroxy-3,13-dimethylhexadecahydro-1H-cyclopenta[a]phenanthren-17-yl)ethan-1-one oxime]: in the data set “Plasma stability assay” (unit in cell hr (head: min)), the half-life at 3 µM is greater than 240 min. For the same compound, at GABAA α4β3δ, the EC50 was 383 nM, the Emax turned out to be 510% and the “selectivity for GABAA receptor containing the delta (δ) subunit compared to a GABAA receptor without it” value is recorded as “selectively potentiate”. In addition, at GABAA α1β2γ2, the EC50 was determined as 692 nM and the Emax was 121%.
Turning to `C/C(=N\O)[C@H]1CC[C@H]2[C@@H]3CC[C@H]4C[C@](C)(O)CC[C@]4(C)[C@H]3CC[C@]12C` [GP-GAN- 001 (10), (E)-1-((3R,8R,9S,10S,13S,14S,17S)-3-hydroxy-3,10,13-trimethylhexadecahydro-1H-cyclopenta[a]phenanthren-17-yl)ethan-1-one oxime], the half-life at 3 µM in the data set “Plasma stability assay” (unit in cell hr (head: min)) was greater than 240 min; in data set [2], greater than 120 min. Also, the results for the EC50 on GABAA α4β3δ and on GABAA α1β2γ2 were 1000 nM and 1620 nM, respectively. Further, the figures for the Emax at GABAA α4β3δ and on GABAA α1β2γ2 were 533% and 133%, respectively.
The compound `C/C(=N\OCOP(=O)(O)O)[C@H]1CC[C@H]2[C@@H]3CCC4C[C@](C)(O)CC[C@]4(C)[C@H]3CC[C@]12C` (stereo partly drawn) [GP-GAN- 007 (22), 1,3-Dihydroxy-2-(hydroxymethyl)propan-2-aminium ((((E)-1-((3R,8R,9S,10S,13S,14S,17S)-3-hydroxy-3,10,13-trimethylhexadecahydro-1H-cyclopenta[a]phenanthren-17-yl)ethylidene)amino)oxy)methyl hydrogen phosphate] showed a solubility in “Aqueous solubility” greater than 1000 µM.

As a reminder, the EC50 is the midpoint of the concentration-response curve. A lower EC50 goes with an effect from little substance. For orientation: solubility means the dissolved amount per volume that the medium holds. Read a high solubility as much dissolved substance.
